According to ChEMBL document CHEMBL4261582, “Natural products as inhibitors of Leishmania major dihydroorotate dehydrogenase” (Eur J Med Chem, 2018):

Key:
[1] = biological target: T1, Dihydroorotate dehydrogenase (fumarate) (Leishmania major) (UniProt Q4QEW7); assay: Binding affinity to Leishmania major DHODH assessed as change in melting temperature at 100 uM by differential scanning fluorimetry-based ThermoFMN assay
T1 sequence (whole entry): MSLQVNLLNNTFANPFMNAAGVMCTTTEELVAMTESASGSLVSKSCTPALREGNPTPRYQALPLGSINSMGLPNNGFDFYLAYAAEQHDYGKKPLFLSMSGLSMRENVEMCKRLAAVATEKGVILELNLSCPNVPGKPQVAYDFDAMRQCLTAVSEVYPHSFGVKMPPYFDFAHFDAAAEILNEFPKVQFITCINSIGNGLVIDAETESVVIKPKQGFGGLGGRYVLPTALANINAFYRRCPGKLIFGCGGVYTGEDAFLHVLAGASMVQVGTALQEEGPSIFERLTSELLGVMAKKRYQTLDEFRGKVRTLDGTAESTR

[2] = biological target: T1, Dihydroorotate dehydrogenase (fumarate) (Leishmania major); assay: Binding affinity to Leishmania major DHODH assessed as change in melting temperature at 500 uM by differential scanning fluorimetry-based ThermoFMN assay
[3] = biological target: Dihydroorotate dehydrogenase (quinone), mitochondrial (Homo sapiens) (UniProt Q02127); assay: Inhibition of human DHODH at 100 uM
Dihydroorotate dehydrogenase (quinone), mitochondrial (Homo sapiens), sequence (Q02127 whole entry): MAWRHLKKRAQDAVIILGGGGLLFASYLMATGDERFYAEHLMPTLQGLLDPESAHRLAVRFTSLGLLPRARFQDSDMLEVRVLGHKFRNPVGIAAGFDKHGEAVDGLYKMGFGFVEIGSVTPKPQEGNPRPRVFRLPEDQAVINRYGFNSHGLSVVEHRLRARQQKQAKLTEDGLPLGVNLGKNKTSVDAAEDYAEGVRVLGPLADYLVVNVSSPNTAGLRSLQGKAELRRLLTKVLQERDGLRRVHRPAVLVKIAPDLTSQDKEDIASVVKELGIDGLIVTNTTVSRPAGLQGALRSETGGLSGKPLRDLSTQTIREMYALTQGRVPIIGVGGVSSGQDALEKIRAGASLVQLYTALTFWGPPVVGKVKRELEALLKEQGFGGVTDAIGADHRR

[4] = biological target: T1, Dihydroorotate dehydrogenase (fumarate) (Leishmania major); assay: Binding affinity to Leishmania major DHODH assessed as change in melting temperature at 500 uM by SYPRO orange dye-based differential scanning fluorimetry
[5] = biological target: T1, Dihydroorotate dehydrogenase (fumarate) (Leishmania major); assay: Binding affinity to Leishmania major DHODH assessed as change in melting temperature at 1000 uM by differential scanning fluorimetry-based ThermoFMN assay
Leishmania braziliensis [6] = assay: Antileishmanial activity against Leishmania braziliensis promastigotes; type: functional, organism-based
[7] = biological target: T1, Dihydroorotate dehydrogenase (fumarate) (Leishmania major); assay: Binding affinity to Leishmania major DHODH assessed as change in melting temperature at 100 uM by SYPRO orange dye-based differential scanning fluorimetry
[8] = biological target: T1, Dihydroorotate dehydrogenase (fumarate) (Leishmania major); assay: Binding affinity to Leishmania major DHODH assessed as change in melting temperature at 1000 uM by SYPRO orange dye-based differential scanning fluorimetry
Leishmania amazonensis [9] = assay: Antileishmanial activity against Leishmania amazonensis promastigotes; type: functional, organism-based
[10] = biological target: T1, Dihydroorotate dehydrogenase (fumarate) (Leishmania major); assay: Inhibition of recombinant oligo-histidine-tagged Leishmania major DHODH expressed in Escherichia coli BL21(DE3) cells at 100 uM using DHO as substrate measured after 60 secs
[11] = biological target: T2, Dihydroorotate dehydrogenase (fumarate) (Leishmania major, UniProt Q4QEW7); assay: Inhibition of recombinant oligo-histidine-tagged Leishmania major DHODH expressed in Escherichia coli BL21(DE3) cells using DHO as substrate measured after 60 secs; conditions: read-out: IC50
T2 sequence (Q4QEW7 whole entry): T1 sequence (whole entry)

Leishmania donovani [12] = assay: Antileishmanial activity against Leishmania donovani amastigotes; type: functional, organism-based
Trypanosoma cruzi [13] = assay: Antitrypanosomal activity against Trypanosoma cruzi trypomastigotes; type: functional, organism-based
[14] = test system: Trypanosoma brucei rhodesiense; assay: Antitrypanosomal activity against Trypanosoma brucei rhodesiense STIB900 trypomastigotes; type: functional, organism-based
Leishmania major [15] = assay: Antileishmanial activity against Leishmania major promastigotes; type: functional, organism-based
Leishmania major [16] = assay: Antileishmanial activity against Leishmania major amastigotes; type: functional, organism-based
[17] = biological target: T1, Dihydroorotate dehydrogenase (fumarate) (Leishmania major); assay: Inhibition of recombinant oligo-histidine-tagged Leishmania major DHODH expressed in Escherichia coli BL21(DE3) cells at 150 uM using DHO as substrate measured after 60 secs
Trypanosoma cruzi [18] = assay: Antitrypanosomal activity against Trypanosoma cruzi Y amastigotes infected in Swiss albino mouse measured on day 7 post infection by Gential violet staining-based assay; type: functional, organism-based; conditions: 168 h
Leishmania amazonensis [19] = assay: Antileishmanial activity against Leishmania amazonensis MHOM/BR/77/LTB 0016 promastigotes after 72 hrs by MTT assay; type: functional, organism-based; conditions: MHOM/BR/77/LTB 0016, 72 h
Leishmania amazonensis [20] = assay: Antileishmanial activity against Leishmania amazonensis MHOM/BR/77/LTB 0016 amastigotes infected in mouse peritoneal macrophages after 72 hrs by staining-based assay; type: functional, organism-based; conditions: MHOM/BR/77/LTB 0016, 72 h
Trypanosoma brucei = assay: Antitrypanosomal activity against Trypanosoma brucei TC221 trypomastigotes after 24 hrs by Alamar Blue assay; type: functional, organism-based; conditions: TC221, 24 h
Leishmania infantum [21] = assay: Antileishmanial activity against Leishmania infantum MHOM/MA(BE)/6 amastigotes infected in mouse J774A.1 cells after 120 hrs by Giemsa staining-based assay; type: functional, organism-based; conditions: MHOM/MA(BE)/6, J774.A1, 120 h
Leishmania infantum [22] = assay: Antileishmanial activity against Leishmania infantum MHOM/MA(BE)/6 promastigotes infected in mouse J774A.1 cells after 120 hrs by Giemsa staining-based assay; type: functional, organism-based; conditions: MHOM/MA(BE)/6, J774.A1, 120 h
Leishmania amazonensis [23] = assay: Antileishmanial activity against Leishmania amazonensis; type: functional, organism-based
Leishmania donovani [24] = assay: Antileishmanial activity against Leishmania donovani; type: functional, organism-based
Leishmania braziliensis [25] = assay: Antileishmanial activity against Leishmania braziliensis; type: functional, organism-based
Leishmania infantum [26] = assay: Antileishmanial activity against Leishmania infantum MHOM/BR/1972/LD promastigotes; type: functional, organism-based
Trypanosoma cruzi [27] = assay: Antitrypanosomal activity against Trypanosoma cruzi amastigotes; type: functional, organism-based
[28] = test system: Trypanosoma brucei rhodesiense; assay: Antitrypanosomal activity against Trypanosoma brucei rhodesiense STIB 900 trypomastigotes after 72 hrs by resazurin dye-based fluorescence assay; type: functional, organism-based; conditions: STIB 900, 72 h
Trypanosoma cruzi [29] = assay: Antitrypanosomal activity against Trypanosoma cruzi Tulahuen trypomastigotes after 96 hrs by CPRG/Nonidet reagent based spectrophotometric method; type: functional, organism-based
Leishmania donovani [30] = assay: Antileishmanial activity against Leishmania donovani MHOM/ET/67/L82 axenic amastigotes after 72 hrs by resazurin dye-based fluorescence assay; type: functional, organism-based; conditions: MHOM/ET/67/L82, 72 h
[31] = test system: Trypanosoma brucei rhodesiense; assay: Antitrypanosomal activity against Trypanosoma brucei rhodesiense STIB900 trypomastigotes after 72 hrs by Alamar Blue assay; type: functional, organism-based; conditions: STIB 900, 72 h
Leishmania donovani [32] = assay: Antileishmanial activity against Leishmania donovani MHOM/ET/67/L82 amastigotes after 72 hrs by Alamar Blue assay; type: functional, organism-based; conditions: MHOM/ET/67/L82, 72 h
Trypanosoma cruzi [33] = assay: Antitrypanosomal activity against Trypanosoma cruzi Tulahuen C2C4 trypomastigotes infected in rat skeletal myoblasts L-6 cells after 96 hrs by CPRG/Nonidet reagent based spectrophotometric method; type: functional, organism-based; conditions: Tulahuen C2C4, L6, 96 h
[34] = test system: Trypanosoma brucei rhodesiense; assay: Antitrypanosomal activity against Trypanosoma brucei rhodesiense STIB 900 trypomastigotes after 72 hrs by Alamar Blue assay; type: functional, organism-based; conditions: STIB 900, 72 h
Leishmania amazonensis [35] = assay: Antileishmanial activity against Leishmania amazonensis IFLA/BR/1967/PH-8 promastigotes after 48 hrs by MTT assay; type: functional, organism-based; conditions: IFLA/BR/1967/PH-8, 48 h
Trypanosoma cruzi [36] = assay: Antitrypanosomal activity against Trypanosoma cruzi Y amastigotes after 24 hrs by Gential violet staining-based assay; type: functional, organism-based
Trypanosoma congolense = assay: Antitrypanosomal activity against Trypanosoma congolense STIB 910 trypomastigotes after 24 hrs by Alamar Blue assay; type: functional, organism-based; conditions: STIB 910, 24 h

CC(=O)OCC1=C2[C@@H](OC(C)=O)C[C@@](C)(OC(C)=O)C(=O)CC[C@@]3(C)O[C@@H]3[C@H]2OC1=O
ΔTm [1]: -0.21 °C | ΔTm [2]: -0.41 °C | inhibition [3]: 0% | ΔTm [4]: -0.47 °C | ΔTm [5]: -0.7 °C | IC50 (Leishmania braziliensis [6]): 27.9 µM | ΔTm [7]: -0.27 °C | ΔTm [8]: -0.64 °C | IC50 (Leishmania amazonensis [9]): 46.1 µM | inhibition [10]: 41% | IC50 [11]: 30.9 µM

C=C(C)C(=O)O[C@H]1C[C@@]2(C)OC(=CC2=O)/C(CO)=C\[C@H]2OC(=O)C(=C)[C@H]12 [GOIAZENSOLIDE]
ΔTm [1]: -0.32 °C | IC50 (Leishmania donovani [12]): 0.45 µM | ΔTm [2]: -0.84 °C | IC50 (Trypanosoma cruzi [13]): 1.08 µM | ΔTm [4]: -4.19 °C | ΔTm [5]: -1.13 °C | IC50 [14]: 0.07 µM | ΔTm [7]: -0.73 °C | ΔTm [8]: -6.51 °C | IC50 [11]: 156 µM

C[C@@H]1CC[C@H]2[C@@H](C)C(=O)O[C@@H]3O[C@@]4(C)CC[C@@H]1[C@]32OO4 [ARTEMISININ]
ΔTm [1]: -0.13 °C | IC50 (Leishmania major [15]): 0.75 µM | ΔTm [2]: -0.35 °C | inhibition [3]: 0% | ΔTm [4]: -0.22 °C | ΔTm [5]: -0.4 °C | ΔTm [7]: -0.14 °C | ΔTm [8]: -0.52 °C | inhibition [10]: 44% | IC50 [11]: 172 µM | IC50 (Leishmania major [16]): 0.3 µM

C=C1C(=O)O[C@@H]2[C@H]3C(C)=CC(=O)C3=C(C)C[C@@H](OC(=O)/C(C)=C/C)[C@@H]12
inhibition [17]: 64% | inhibition [3]: 3% | IC50 [11]: 26.8 µM

COc1cc(O)c2c(=O)cc(-c3ccc(OC)c(OC)c3)oc2c1
IC50 (Trypanosoma cruzi [18]): 217 µM | IC50 [11]: 217 µM

CN1[C@@H]2C[C@H](OC(=O)[C@H](CO)c3ccccc3)C[C@H]1[C@@H]1O[C@@H]12
IC50 (Leishmania amazonensis [19]): > 100 µM | IC50 (Leishmania amazonensis [20]): > 25 µM | IC50 (Trypanosoma brucei): > 100 µM | IC50 [11]: 795 µM

C/C=C(/C)C(=O)O[C@H]1[C@H](OC(C)=O)[C@]2(CO)[C@H](O)C[C@]3(C)C(=CC[C@@H]4[C@@]5(C)CC[C@H](O[C@@H]6O[C@H](C(=O)O)[C@@H](O[C@@H]7O[C@H](CO)[C@@H](O)[C@H](O)[C@H]7O)[C@H](O)[C@H]6O[C@@H]6O[C@H](CO)[C@@H](O)[C@H](O)[C@H]6O)[C@](C)(CO)[C@@H]5CC[C@]43C)[C@@H]2CC1(C)C [ESCIN IB]
IC50 (Leishmania infantum [21]): 1.37 µM | IC50 (Leishmania infantum [22]): > 14.1 µM | IC50 [11]: 478 µM

O=c1ccc2ccccc2o1 [COUMARIN]
IC50 (Leishmania amazonensis [23]): 342 µM | IC50 (Leishmania donovani [24]): 342 µM | IC50 (Leishmania braziliensis [25]): 342 µM | IC50 [11]: 642 µM

C=C1C(=O)O[C@@H]2/C=C(/CO)C3=CC(=O)[C@@](C)(C[C@@H](OC(=O)/C(C)=C\C)[C@@H]12)O3
IC50 (Leishmania donovani [12]): 5.14 µM | IC50 [14]: 0.07 µM | IC50 (Leishmania infantum [26]): 28 µM | IC50 (Trypanosoma cruzi [27]): 1.75 µM | IC50 [11]: 653 µM

C=C1C(=O)O[C@@H]2/C=C(\CO)CC/C=C(\C)C[C@H](OC(=O)C(=C)[C@@H](O)CO)[C@@H]12
IC50 [28]: 1.3 µM | IC50 (Trypanosoma cruzi [29]): 16.8 µM | IC50 (Leishmania donovani [30]): 15.2 µM | IC50 [11]: 361 µM

CC[C@H](CC[C@H](C)[C@H]1CC[C@H]2[C@@H]3CC=C4C[C@@H](O)CC[C@]4(C)[C@H]3CC[C@]12C)C(C)C
IC50 [31]: 86.1 µM | IC50 (Leishmania donovani [32]): 27.8 µM | IC50 (Trypanosoma cruzi [33]): 35.4 µM | IC50 [11]: 414 µM

Oc1cc(O)c2c(c1)O[C@H](c1ccc(O)c(O)c1)[C@@H](O)C2 [CIANIDANOL]
IC50 (Leishmania donovani [32]): 103 µM | IC50 (Trypanosoma cruzi [33]): 310 µM | inhibition [3]: 38% | IC50 [34]: 50 µM | IC50 (Leishmania amazonensis [35]): 153 µM | inhibition [10]: 52% | IC50 [11]: 98.3 µM

C=C[C@]1(C)C=C2CC[C@H]3[C@@](C)(CCC[C@]3(C)C(=O)O)[C@@H]2CC1
IC50 (Trypanosoma cruzi [36]): 386 µM | IC50 [11]: 1320 µM

CC[C@H]1CN2CCc3cc(OC)c(OC)cc3[C@@H]2C[C@@H]1C[C@H]1NCCc2cc(OC)c(OC)cc21 [EMETINE]
IC50 (Trypanosoma congolense): 0.43 µM | IC50 (Trypanosoma brucei): 0.04 µM | IC50 [11]: 1070 µM
